Values after ≈ are worked out from the molar mass of the structure shown.
Key:
E. faecalis ATCC 29212 = assay: NCCLS broth microdilution MIC; assay type: cell-based, Enterococcus faecalis; settings: for Minimum Inhibitory Concentration (MIC): B = E. faecalis ATCC 29212
Description: (§1) Compounds according to this invention were screened for their in vitro activities against selected species of bacteria and fungi. The minimal inhibition concentration (MIC) of these compounds was determined using the National Committee for Clinical Laboratory Standards (NCCLS) broth microdilution assay in microtiter plates, as set forth in: (1) the guidelines of the National Committee for Clinical Laboratory Standards (NCCLS) Document M7-A4 (NCCLS, 1997); (2) the guidelines of the National Committee for Clinical Laboratory Standards (NCCLS) Document M11-A4 (NCCLS, 1997); and (3) the guidelines and reference method of the National Committee for Clinical Laboratory Standards (NCCLS) Document M27-T (NCCLS, 1995). For antifungal essays, the method recommended in Murray, P R., 1995 Manual of Clinical Microbiology (ASM Press, Washington, D.C.), was employed. […]

S. aureus ATCC 29213 = assay: NCCLS broth microdilution MIC; assay type: cell-based, Staphylococcus aureus; settings: for Minimum Inhibitory Concentration (MIC): A = S. aureus ATCC 29213
Description: as §1

B. cereus ATCC 11778 = assay: NCCLS broth microdilution MIC; assay type: cell-based, Bacillus cereus; settings: for Minimum Inhibitory Concentration (MIC): C = B. cereus ATCC 11778
Description: as §1

S. pneumoniae ATCC 49619 = assay: NCCLS broth microdilution MIC; assay type: cell-based, Streptococcus pneumoniae; settings: for Minimum Inhibitory Concentration (MIC): F = S. pneumoniae ATCC 49619
Description: as §1

C. albicans ATCC 38247 = assay: NCCLS broth microdilution MIC (antifungal); assay type: cell-based; settings: for Minimum Inhibitory Concentration (MIC): E = C. albicans ATCC 38247
Description: as §1

5′-AAAAAGTACAAAAA-3′ = assay type: binding; settings: DNA sequence 5′-AAAAAGTACAAAAA-3′; pH 7.0, 22° C.
Description: (§2) A number of compounds according to this invention were screened for their ability to bind to three DNA sites, using DNase I footprinting. Generally, the procedure described in Dervan, WO 98/50582 (1998), was followed.
(§3) A plasmid was prepared by hybridizing two sets of 5′-phosphorylated complementary oligonucleotides, one set being
(§4) The target sites and their complements are identified in bold underline.
(§5) The resulting duplexes were ligated to the large pUC19 AvaI/SalI restriction fragment. The 3′-P32 end-labeled EcoRI/PvuII fragment was prepared by digesting the plasmid with EcoRI and PvuII with simultaneous fill-in using Sequenase v. 2.0, [alpha-P32]-deoxyadenosine-5′-triphosphate, and [alpha-P32]-thymidine-5′-triphosphate, and isolating the cloned fragment by nondenaturing gel electrophoresis. Standard methods were used for all DNA manipulations, including A and G sequencing. See, e.g., Maxam et al., Methods Enzymol., 1980, 65, 499-560; Iverson et al., Methods Enzymol., 1987, 15, 7823-7830; and Sambrook et al., 1989, Molecular Cloning, 2nd ed., Cold Spring Harbor Laboratory Press: Cold Spring Harbor, N.Y.
(§6) Quantitative DNase I footprint titration experiments were carried out as described previously (Dervan, WO 98/50582, 1998, “Dervan '582”) with the following changes. All reactions were carried out in a total volume of 400 μL, with polyamide stock solution or water added to 15,000 cpm radiolabeled restriction fragment affording final solution conditions of 10 mM Tris.HCl, 10 mM KCl, 10 mM MgCl2, 5 mM CaCl2, pH 7.0 and 0.01 nM, 0.1 nM, 1.0 nM, 10.0 nM polyamide or no polyamide for reference lanes. The polyamides were allowed to equilibrate at 22° C. for 16 hr. Footprinting reactions were initiated with addition of 10 μL of a DNase I stock solution (at the appropriate concentration to give ˜50% intact DNA) containing 1 mM DTT and allowed to proceed for 7 min at 22° C. The reactions were stopped, ethanol precipitated, resuspended in loading buffer, heat denatured, and placed on ice as described in Dervan '582. The reaction products were separated on a precast 8% polyacrylamide denaturing sequencing Castaway gel with 32 preformed wells from Stratagene in 1× TBE at 2000 V. Gels were dried according to the manufacturer's instructions and exposed to a storage phosphor screen (Molecular Dynamics). Quantitation and data analysis were carried out as described in Dervan '582.

5′-AAAAAGACAAAAA-3′ = assay type: binding; settings: DNA sequence 5′-AAAAAGACAAAAA-3′; pH 7.0, 22° C.
Description: as §2, §3, §4, §5, §6

5′-AAAAAGCAAAAA-3′ = assay type: binding; settings: DNA sequence 5′-AAAAAGCAAAAA-3′; pH 7.0, 22° C.
Description: as §2, §3, §4, §5, §6

E. coli ATCC 25922 = assay: NCCLS broth microdilution MIC; assay type: cell-based; settings: for Minimum Inhibitory Concentration (MIC): D = E. coli ATCC 25922
Description: as §1

Structure (SMILES)	Minimum Inhibitory Concentration (MIC) (E. faecalis ATCC 29212)	Minimum Inhibitory Concentration (MIC) (S. aureus ATCC 29213)	Minimum Inhibitory Concentration (MIC) (B. cereus ATCC 11778)	Minimum Inhibitory Concentration (MIC) (S. pneumoniae ATCC 49619)	Minimum Inhibitory Concentration (MIC) (C. albicans ATCC 38247)	Minimum Inhibitory Concentration (MIC) (E. coli ATCC 25922) [µg/mL]	Equilibrium Association Constant (Ka) (5′-AAAAAGTACAAAAA-3′)	Equilibrium Association Constant (Ka) (5′-AAAAAGACAAAAA-3′) [M⁻¹]	Equilibrium Association Constant (Ka) (5′-AAAAAGCAAAAA-3′) [M⁻¹]	MIC (E. faecalis ATCC 29212; Enterococcus faecalis, ATCC29212, read-out: Minimum Inhibitory Concentration (MIC)) [µg/mL]	MIC (S. aureus ATCC 29213; Staphylococcus aureus, ATCC29213, read-out: Minimum Inhibitory Concentration (MIC)) [µg/mL]	MIC (E. coli ATCC 25922; Escherichia coli, ATCC25922, read-out: Minimum Inhibitory Concentration (MIC)) [µg/mL]	MIC (B. cereus ATCC 11778; Bacillus cereus, ATCC11778, read-out: Minimum Inhibitory Concentration (MIC)) [µg/mL]	MIC (S. pneumoniae ATCC 49619; Streptococcus pneumoniae, ATCC49619, read-out: Minimum Inhibitory Concentration (MIC)) [µg/mL]	MIC (C. albicans ATCC 38247; Candida albicans, ATCC38247, read-out: Minimum Inhibitory Concentration (MIC)) [µg/mL]
Cc1csc(C(=O)Nc2cc(C(=O)Nc3cc(C(=O)Nc4cc(C(=O)NCCN5CCOCC5)n(C)c4)n(C)c3)n(C)c2)c1Cl [Ie-11]	+++ (+++ = MIC ≦4)	+++ (+++ = MIC ≦4)	+++ (+++ = MIC ≦4)	+++ (+++ = MIC ≦4)	>32 µg/mL	>32	–	–	–	–	–	–	–	–	–
Cn1cc(NC(=O)c2cc(NC(=O)c3cc(NC(=O)c4sccc4F)cn3C)cn2C)cc1C(=O)NCCN1CCOCC1 [Ie-5]	>32 µg/mL	+++ (+++ = MIC ≦4)	+++ (+++ = MIC ≦4)	+++ (+++ = MIC ≦4)	>32 µg/mL	>32	–	–	–	–	–	–	–	–	–
Cn1cc(NC(=O)c2cc(NC(=O)c3cc(NC(=O)c4ccc(Br)s4)cn3C)cn2C)cc1C(=O)NCCCC(=O)Nc1cn(C)c(C(=O)Nc2cc(C(=O)Nc3cc(C(=O)Nc4cc(C(=O)NCCC(=O)NCCCN5CCNCC5)n(C)c4)n(C)c3)n(C)c2)n1 [If-2]	>32 µg/mL	>32 µg/mL	>32 µg/mL	>32 µg/mL	>32 µg/mL	>32	–	–	–	–	–	–	–	–	–
CN(C)CCCNC(=O)c1cc(NC(=O)c2cc(NC(=O)c3cc(NC(=O)c4sccc4F)cn3C)cn2C)cn1C [Ie-4]	++ (++ = MIC between 4 and 12)	++ (++ = MIC between 4 and 12)	+ (+ = MIC from 12 to 32, inclusive)	+++ (+++ = MIC ≦4)	>32 µg/mL	>32	–	–	–	–	–	–	–	–	–
Cn1cc(NC(=O)c2cc(NC(=O)c3cc(NC=O)cn3C)cn2C)cc1C(=O)NCCC(=N)N [Distamycin, distamycin, reference compound]	–	–	–	–	–	–	–	–	–	12 to 32 (≈ 24.9 to 66.5 µM)	12 to 32 (≈ 24.9 to 66.5 µM)	> 32	4 to 12 (≈ 8.31 to 24.9 µM)	12 to 32 (≈ 24.9 to 66.5 µM)	> 32
Cn1cc(NC(=O)c2cc(NC(=O)CCNC(=O)c3cc(NC(=O)c4cc(NC(=O)c5ccc(Br)s5)cn4C)cn3C)cn2C)cc1C(=O)NCCC(=O)NCc1cccnc1 [Id-23]	+++ (+++ = MIC ≦4)	>32 µg/mL	>32 µg/mL	+++ (+++ = MIC ≦4)	>32 µg/mL	>32	–	–	–	–	–	–	–	–	–
CN(C)CCCNC(=O)CCNC(=O)c1cc(NC(=O)c2cc(NC(=O)c3cc(NC(=O)c4nc(NC(=O)CCCNC(=O)c5cc(NC(=O)c6cc(NC(=O)c7cc(NC(=O)c8cc(Br)c(Br)s8)cn7C)cn6C)cn5C)cn4C)cn3C)cn2C)cn1C [If-1]	>32 µg/mL	>32 µg/mL	>32 µg/mL	>32 µg/mL	>32 µg/mL	>32	–	–	–	–	–	–	–	–	–
Cn1cc(NC(=O)c2cc(NC(=O)CCNC(=O)c3cc(NC(=O)c4cc(NC(=O)c5cc(Br)c(NCCCN)s5)cn4C)cn3C)cn2C)cc1C(=O)NCCC(=O)NCCCN [Id-25]	+ (+ = MIC from 12 to 32, inclusive)	+ (+ = MIC from 12 to 32, inclusive)	+++ (+++ = MIC ≦4)	+++ (+++ = MIC ≦4)	>32 µg/mL	>32	–	–	–	–	–	–	–	–	–

Continued, in another order:

Minimum Inhibitory Concentration (MIC) (E. faecalis ATCC 29212)	Minimum Inhibitory Concentration (MIC) (S. aureus ATCC 29213)	Minimum Inhibitory Concentration (MIC) (B. cereus ATCC 11778)	Minimum Inhibitory Concentration (MIC) (S. pneumoniae ATCC 49619)	Minimum Inhibitory Concentration (MIC) (C. albicans ATCC 38247)	Minimum Inhibitory Concentration (MIC) (E. coli ATCC 25922) [µg/mL]	Structure (SMILES)	Equilibrium Association Constant (Ka) (5′-AAAAAGTACAAAAA-3′)	Equilibrium Association Constant (Ka) (5′-AAAAAGACAAAAA-3′) [M⁻¹]	Equilibrium Association Constant (Ka) (5′-AAAAAGCAAAAA-3′) [M⁻¹]	MIC (E. faecalis ATCC 29212; Enterococcus faecalis, ATCC29212, read-out: Minimum Inhibitory Concentration (MIC)) [µg/mL]	MIC (S. aureus ATCC 29213; Staphylococcus aureus, ATCC29213, read-out: Minimum Inhibitory Concentration (MIC)) [µg/mL]	MIC (E. coli ATCC 25922; Escherichia coli, ATCC25922, read-out: Minimum Inhibitory Concentration (MIC)) [µg/mL]	MIC (B. cereus ATCC 11778; Bacillus cereus, ATCC11778, read-out: Minimum Inhibitory Concentration (MIC)) [µg/mL]	MIC (S. pneumoniae ATCC 49619; Streptococcus pneumoniae, ATCC49619, read-out: Minimum Inhibitory Concentration (MIC)) [µg/mL]	MIC (C. albicans ATCC 38247; Candida albicans, ATCC38247, read-out: Minimum Inhibitory Concentration (MIC)) [µg/mL]
+ (+ = MIC from 12 to 32, inclusive)	>32 µg/mL	+ (+ = MIC from 12 to 32, inclusive)	++ (++ = MIC between 4 and 12)	>32 µg/mL	–	Cn1cc(NC(=O)c2cc(NC(=O)CCNC(=O)c3cc(NC(=O)c4cc(NC(=O)c5ccc(Br)s5)cn4C)cn3C)cn2C)cc1C(=O)NCCC(=O)NCCCNC1CCCCC1 [Id-15]	≧1 × 10^11 M^−1	5e+10	5e+10	–	–	–	–	–	–
>32 µg/mL	++ (++ = MIC between 4 and 12)	+++ (+++ = MIC ≦4)	+++ (+++ = MIC ≦4)	+ (+ = MIC from 12 to 32, inclusive)	>32	CN(C)CCCNC(=O)CCNC(=O)c1cc(NC(=O)c2cc(NC(=O)CCNC(=O)c3cc(NC(=O)c4cc(NC(=O)c5sccc5Cl)cn4C)cn3C)cn2C)cn1C [Id-27]	–	–	–	–	–	–	–	–	–
>32 µg/mL	>32 µg/mL	>32 µg/mL	++ (++ = MIC between 4 and 12)	>32 µg/mL	>32	CN(C)CCCNC(=O)CCNC(=O)c1cc(NC(=O)c2cc(NC(=O)CCNC(=O)c3cc(NC(=O)c4cc(NC(=O)c5sccc5F)cn4C)cn3C)cn2C)cn1C [Id-30]	–	–	–	–	–	–	–	–	–
>32 µg/mL	>32 µg/mL	>32 µg/mL	+++ (+++ = MIC ≦4)	>32 µg/mL	>32	Cn1cc(NC(=O)c2cc(NC(=O)CCNC(=O)c3cc(NC(=O)c4cc(NC(=O)c5ccc(Br)s5)cn4C)cn3C)cn2C)cc1C(=O)NCCC(=O)NCC(C)(C)CN [Id-20]	–	–	–	–	–	–	–	–	–
+++ (+++ = MIC ≦4)	+++ (+++ = MIC ≦4)	+++ (+++ = MIC ≦4)	+++ (+++ = MIC ≦4)	>32 µg/mL	>32	CCNCCNC(=O)CCNC(=O)c1cc(NC(=O)c2cc(NC(=O)CCNC(=O)c3cc(NC(=O)c4cc(NC(=O)c5cc(Br)c(Br)s5)cn4C)cn3C)cn2C)cn1C [Id-12]	–	–	–	–	–	–	–	–	–
